# Results taken from US20070110734A9, “Methods and compositions using cellular asialodeterminants and glycoconjugates for targeting cells to tissues and organs” (Department of Veterans Affairs, Rehabilitation R&D Service, priority 2002, published 2007).
# “Also recorded” adds a separate entry of the source.
# Tests used:
# Assay type in all cases: cell-based, human
# [1] = tested on: CAKI-2 (ASGPR−); experiment: Adherence of NK/LAK activity to CAKI-2 monolayers at 23° C; conditions: 23° C; 200 μg/ml
# Description: (§1) This experiment is the same as above, except that the adherence to monolayers was performed at 23° C. and not 4° C., for 2 hours. Two monolayers were used: HEPG2, an ASGPR+ cell line, and CAKI-2 (human renal cell carcinoma), an ASGPR− cell line. The effector cell populations that were used were: an untreated 3-day old LAK preparation (LAK) and the same population treated with Vibrio cholera neuraminidase (LAK/NS) (30 mU/1×10^7 cells/200 μl). The neuraminidase-treated population was the asialopositive lymphocyte control. All cell populations regardless of treatment were greater than 90% viable at the time of assay. Each type of effector population was incubated with media alone, 200 μg/ml ASF or F, as controls. All effectors were assayed on RAJI (LAK-sensitive target; NK-insensitive target) or K562 (NK/LAK-sensitive target); the E:T ratios and the graphic presentation are the same above.
# (§2) Five-day LAK preparations (20 U/ml; 1 Dupont unit=44.5 BRMP units) grown in AIM-V (Gibco) were treated (according to the protocols in B. 1.2.3 & 1.2.4) with 3 OmU Vibric Cholera neuramindase, 0.48 mU 2,3-or 10 mu 2,6-silalyltransferase per 107 cells. Some of the effectors were incubated in media, 10% PBS in RPMJ 1640 at 23° C. for 2 hours. 2×107 effectors from the untreated LALK, neuramithdase-treated LAK, LAK treated with 2,3 or 2,6 were suspended in 15 ml media and placed onto either HEPG2 (ASGPR+) or CAKI-2 (ASGPR−) monolayers at 23° C. for 2 hours. The flasks were rocked every 15 minutes. The nonadherent cells from these monolayers were decanted and assayed against K562 and RAJI, in addition to the unadhered controls. The E:T ratios used were 40, 20, 10, and 5 to 1.
# [2] = tested on: RAJI (LAK-sensitive target; NK-insensitive target); experiment: Cytotoxic capacity of LAK effectors in 51Cr-release assay on RAJI
# Description: (§3) Control cells (no IL-2 treatment) or LAK cells (IL-2-treated human peripheral blood lymphocytes cultured 10U IL-2/ml for 3 days) were adhered to a monolayer of HEP G2 cells for 2 hours at 4° C. The monolayer was pretreated either with asialofetuin (ASF, 200 μg/ml) in media or with fetuin (F, control, 200 μg/ml)) in media. After the Control or LAK cells had been incubated on the monolayer, these cells were then decanted, washed, and tested for cytotoxic capacity in a ^51Cr-release assay against the NK-resistant target, Raji.
# as §1, §2
# [3] = tested on: Caki-2 Targets; experiment: 51Cr-release assay of LAK effectors against CAKI-2 with agent added; conditions: concentration of 1 mg/ml
# [4] = tested on: HEPG2 (ASGPR+); experiment: Adherence of NK/LAK activity to HEPG2 monolayers at 4° C; conditions: monolayer pretreated with 200 μg/ml protein, 2 hours at 4° C, assayed on Raji
# Description: as §3
# [5] = tested on: K562 (NK/LAK-sensitive target); experiment: Cytotoxic capacity of IL-2 activated NK effectors in 51Cr-release assay on K562; conditions: 200 μg/ml; 23° C
# Description: as §1, §2
# [6] = tested on: Caki-2 Targets; experiment: 51Cr-release assay of LAK effectors against CAKI-2 with agent added; conditions: for % 51Chromium Release from Caki-2 Targets: agent 250 μg per well, 5-day LAK, 4-hour incubation
# Excerpt: A working hypothesis is that LAK/NK cells bind to HEPG2 via at least two receptors or recognition structures: 1) the ASGPR, which binds an asialodeterminant on the LAK/NK population and 2) the “LAK” or “NK” recognition structure for a target epitope. The first should be inhibitable by ASF; the second should not be. Binding to CAKI-2 (ASGPR−) should not be inhibited by ASF and is due to a LAK or NK recognition structure binding to the target epitope. This can be further supported by data derived from experiments (see below) in which 250 μg/well of ASF or F were added to the ^51Cr-release assay of LAK effectors against the labeled target CAKI-2.
# (% SPECIFIC RELEASE was determined from quadruplicates whose raw counts per minute differed by less than 10 percent; the assay was a standard 4-hour incubation.)
# [7] = tested on: HEPG2 (ASGPR+); experiment: Adherence of NK/LAK activity to HEPG2 monolayers at 23° C; conditions: 23° C, 200 μg/ml
# Description: as §1, §2
substance,measurement,setting,value
asialofetuin [ASF],inhibition of adherence to CAKI-2 of IL-2 activated NK or LAK activity,[1],could not be inhibited; also recorded: cannot be blocked
same,activity of LAK or Control preparations incubated with the protein alone versus untreated LAK,"[2]; 200 μg/ml for 2 h at 40C, no monolayer",identical activity
same,ability of effectors (LAK or LAK/NS) to kill RAJI after preincubation with the protein,"[2]; 200 μg/ml, 23° C",does not affect
same,"inhibition of the ability of LAK to kill CAKI-2 target, in words",[3],did not inhibit
same,"adherence of LAK activity to HEPG2 monolayer, in words",[4],virtually all LAK activity can be inhibited from adhering
same,"adherence of LAK activity to HEPG2 monolayer, in words",[4]; listed as asialofetuin,not removed; also recorded: does not adhere
same,ability of effectors (LAK or LAK/NS) to kill K562 after preincubation with the protein,[5],does not affect
same,% 51Chromium Release from Caki-2 Targets,[6]; E:T 5:1,13%
same,% 51Chromium Release from Caki-2 Targets,[6]; E:T 10:1,24%
same,% 51Chromium Release from Caki-2 Targets,[6]; E:T 20:1,41%
same,% 51Chromium Release from Caki-2 Targets,[6]; E:T 40:1,52%
same,"blocking of LAK killing of the tumor target CAKI-2, in words",[6]; preincubation of targets and addition to the assay at 250 μg per well,does not block
same,inhibition of adherence to HEPG2 of LAK activity (assayed on RAJI),[7],could not be inhibited; also recorded: cannot be inhibited
same,inhibition of adherence of LAK activity of the neuraminidase-treated population to HEPG2,[7]; assayed on RAJI,only marginally be inhibited
same,inhibition of adherence to HEPG2 of IL-2 activated NK (assayed on K562),[7]; with or without neuraminidase treatment,partially inhibited
